According to US12312359B2 (Vitae Pharmaceuticals, LLC, priority 2016, dated 2025):

What was measured:
[1] = test system: human acute monocytic leukemia cell line MV-4-11; test: Assay 2: cell proliferation assay (ATP quantitation, CellTiter-Glo), MV-4-11; format: cell-based; conditions: MV-4-11 cells
Protocol: Potencies of inhibitor compounds against cell proliferation was assessed against the human acute monocytic leukemia cell line MV-4-11 (ATCC® CRL-9591™) based on ATP quantitation. MV-4-11 cells or toxicity control HL-60 cells (ATCC® CCL-240™) were incubated in 96-well tissue culture plates (1.67×10^4 cells in 200 μL culture media containing 10% FBS per well) with or without test compound for 72 h at 37° C., 5% CO2. After incubation, each well was mixed by pipetting and 95 μL from each well was transferred to a well in 96-well black OptiPlate® plates (PerkinElmer). An equal volume of CellTiter-Glo® Luminescent Cell Viability Assay reagent (Promega) was added to each well, followed by mixing for 5 min on an orbital plate shaker. Luminescence was measured on a Wallac EnVision 2104 Multilabel Reader (PerkinElmer) to quantitate ATP.

[2] = target: T1, biotinylated wild-type menin and MLL-AF9 fusion protein (menin/MLL binding) (Homo sapiens, UniProt O00255); test: Assay 1: menin/MLL binding AlphaLISA assay, wild-type menin; conditions: Table 30; column head does not say wild-type or mutated menin
T1 construct: made in house; host or cells: menin: E. coli; MLL-AF9-FLAG: HEK293 cells, used as cleared lysate
T1 sequence (O00255 1-610): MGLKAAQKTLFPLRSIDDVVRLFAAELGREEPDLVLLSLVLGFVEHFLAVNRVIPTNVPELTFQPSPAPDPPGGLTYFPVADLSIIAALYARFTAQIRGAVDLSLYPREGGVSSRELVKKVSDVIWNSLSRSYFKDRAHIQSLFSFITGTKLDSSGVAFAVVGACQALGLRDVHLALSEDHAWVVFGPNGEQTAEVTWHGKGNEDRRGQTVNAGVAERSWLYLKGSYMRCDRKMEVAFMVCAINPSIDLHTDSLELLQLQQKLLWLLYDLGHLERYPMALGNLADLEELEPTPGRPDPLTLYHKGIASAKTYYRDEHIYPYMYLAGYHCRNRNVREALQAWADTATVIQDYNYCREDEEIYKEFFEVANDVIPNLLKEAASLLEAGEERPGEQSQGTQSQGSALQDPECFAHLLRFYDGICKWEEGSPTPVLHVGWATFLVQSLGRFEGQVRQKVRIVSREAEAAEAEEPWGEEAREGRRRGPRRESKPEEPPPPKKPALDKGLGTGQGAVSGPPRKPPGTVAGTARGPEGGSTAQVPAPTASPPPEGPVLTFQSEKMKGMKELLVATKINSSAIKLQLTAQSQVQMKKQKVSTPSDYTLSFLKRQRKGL
Protocol: Potencies of inhibitor compounds against menin/MLL binding were assessed by AlphaLISA assay using biotinylated (1) wild-type menin or (2) mutated menin (described in Huang et al, 2012, Nature, 482, 542-546) and MLL-AF9 fusion protein bearing a FLAG epitope at its C-terminus. Menin proteins were expressed in E. coli and covalently modified with biotin using EZ-Link™ Sulfo-NHS-Biotin (ThermoFisher Cat.No. 21217) according to manufacturer's protocol. MLL1-1,396 fused to AF91-92 and the C-terminal FLAG peptide was expressed in HEK293 cells and used as a lysate cleared at 21,000×g for 10 min.
Compounds (2 μL of solutions in DMSO) were dispensed in white 96-well half-area plates (Corning Cat.No. 3693) and incubated for 30 min at RT with 5 nM biotinylated menin and appropriate amount of MLL-AF9-FLAG lysate in 40 μL of 50 mM Tris-HCl buffer pH 7.4 containing 5% (v/v) DMSO, 50 mM NaCl, 0.01% (w/v) bovine serum albumin (BSA) and 1 mM DTT. To this incubation mixture, 40 μL of AlphaLISA anti-FLAG acceptor (PerkinElmer Cat.No. AL112C) and streptavidin donor (PerkinElmer Cat.No. 6760002) beads (10 μg/mL each) was added and incubation continued at RT for 60 min. Alpha (amplified luminescent proximity homogeneous assay) signal was measured on an Envision multi-label plate reader at the end of the incubation. All steps were conducted under dim fluorescent light.
These percent inhibition values were regressed against compound concentrations in the assay using four parameter logit non-linear curve fitting (XLFit, IDBS). The IC50 values were derived from the curve fitting as inflection points on the dose-response curves and are set out in Table 30 below.

SMILES	EC50 ([1]; Homo sapiens, MV4-11, 72 h) [µM]	IC50 [2] [µM]	EC50 ([1]; 72 h) [µM]
CC(=O)Nc1ccc(CN2CCC3(CCN(c4ncncc4Oc4ccc(F)cc4-c4ccccc4C(C)C)C3)C2)cc1 (centres unmarked) [Example 221, N-(4-((7-(5-((5-fluoro-2′-isopropyl-[1,1′-biphenyl]-2-yl)oxy)pyrimidin-4-yl)-2,7-diazaspiro[4.4]nonan-2-yl)methyl)phenyl) acetamide]	0.1 to 1	< 0.1	
CC(=O)NCCn1c(=O)[nH]c2cc(CN3CCC4(CCN(c5ncncc5Oc5ccc(F)cc5C(=O)N(C)C(C)C)C4)C3)ccc21 (centres unmarked) [Example 123, 2-((4-(7-((1-(2-acetamidoethyl)-2-oxo-2,3-dihydro-1H-benzo[d]imidazol-5-yl)methyl)-2,7-diazaspiro[4.4]nonan-2-yl)pyrimidin-5-yl)oxy)-5-fluoro-N-isopropyl-N-methylbenzamide]	≥ 1	< 0.1	
CCn1c(=O)[nH]c2cc(CN3CCC4(CCN(c5ncncc5Oc5ccc(F)cc5-c5ccc(C#N)cc5C5CC5)C4)C3)ccc21 (centres unmarked) [Example 191, 2-cyclopropyl-2′-((4-(7-((1-ethyl-2-oxo-2,3-dihydro-1H-benzo[d]imidazol-5-yl)methyl)-2,7-diazaspiro[4.4]nonan-2-yl)pyrimidin-5-yl)oxy)-5′-fluoro-[1,1′-biphenyl]-4-carbonitrile]	< 0.1	< 0.1	
N#Cc1ccc(-c2cc(F)ccc2Oc2cncnc2N2CC3(CN(CC4CCC(O)CC4)C3)C2)c(C2CC2)c1 (centres unmarked) [Example 151, 2-cyclopropyl-5′-fluoro-2′-((4-(6-((4-hydroxycyclohexyl)methyl)-2,6-diazaspiro[3.3]heptan-2-yl)pyrimidin-5-yl)oxy)-[1,1′-biphenyl]-4-carbonitrile]	≥ 1	< 0.1	
CC(C)CN1CC2(CCN(c3ncncc3Nc3ccc(F)cc3-c3ccccc3OC(C)C)CC2)C1 [Example 245, N-(5-fluoro-2′-isopropoxy-[1,1′-biphenyl]-2-yl)-4-(2-isobutyl-2,7-diazaspiro[3.5]nonan-7-yl) pyrimidin-5-amine]		< 0.1	
CP(C)(=O)c1cc(F)ccc1Oc1cncnc1N1CCC2(CCN(Cc3ccc4[nH]c(=O)[nH]c4c3)C2)C1 (centres unmarked) [Example 17, 5-((7-(5-(2-(dimethylphosphoryl)-4-fluorophenoxy)pyrimidin-4-yl)-2,7-diazaspiro[4.4]nonan-2-yl)methyl)-1H-benzo[d]imidazol-2(3H)-one]		0.1 to 1	
CC(C)n1nccc1-c1cc(F)ccc1Oc1cnc(Cl)nc1N1CCC2(CCN(Cc3ccc4[nH]c(=O)[nH]c4c3)C2)C1 (centres unmarked) [Example 46, 5-((7-(2-chloro-5-(4-fluoro-2-(1-isopropyl-1H-pyrazol-5-yl)phenoxy)pyrimidin-4-yl)-2,7-diazaspiro[4.4]nonan-2-yl)methyl)-1,3-dihydro-2H-benzo[d]imidazol-2-one]		0.1 to 1	
O=c1[nH]c2ccc(CN3CCC4(CCN(c5ncncc5Oc5ccc(F)cc5-c5ccccc5C(F)(F)F)C4)C3)cc2[nH]1 (centres unmarked) [Example 50, 5-((7-(5-((5-fluoro-2′-(trifluoromethyl)-[1,1′-biphenyl]-2-yl)oxy)pyrimidin-4-yl)-2,7-diazaspiro[4.4]nonan-2-yl)methyl)-1H-benzo[d]imidazol-2(3H)-one]		< 0.1	
N#Cc1ccc(-c2cc(F)ccc2Oc2cncnc2N2CCC3(CCN(c4nc(C(=O)O)cs4)C3)C2)c(C2CC2)c1 (centres unmarked) [Example 56, 2-(7-(5-((4′-cyano-2′-cyclopropyl-5-fluoro-[1,1′-biphenyl]-2-yl)oxy)pyrimidin-4-yl)-2,7-diazaspiro[4.4]nonan-2-yl)thiazole-4-carboxylicacid]		≥ 1	
CCOC(=O)c1csc(N2CCC3(CCN(c4ncncc4Oc4ccc(F)cc4-c4ccc(C#N)cc4C4CC4)C3)C2)n1 (centres unmarked) [Example 55, Ethyl 2-(7-(5-((4′-cyano-2′-cyclopropyl-5-fluoro-[1,1′-biphenyl]-2-yl)oxy)pyrimidin-4-yl)-2,7-diazaspiro[4.4]nonan-2-yl)thiazole-4-carboxylate]		≥ 1	
CC(C)CN1CC2(CCN(c3ncncc3Nc3ccc(F)cc3-c3ccccc3C(C)C)CC2)C1 [Example 246, N-(5-fluoro-2′-isopropyl-[1,1′-biphenyl]-2-yl)-4-(2-isobutyl-2,7-diazaspiro[3.5]nonan-7-yl) pyrimidin-5-amine]		< 0.1	
CC(C)S(=O)(=O)Nc1cc(F)ccc1Oc1cncnc1N1CC2(CCN(C[C@H]3CC[C@H](NS(C)(=O)=O)CC3)CC2)C1 [Example 74, N-(5-fluoro-2-((4-(7-(((1r,4r)-4-(methylsulfonamido)cyclohexyl)methyl)-2,7-diazaspiro[3.5]nonan-2-yl)pyrimidin-5-yl)oxy)phenyl)propane-2-sulfonamide]		< 0.1	
O=c1[nH]c2ccc(CN3CCC4(CCN(c5ncncc5Oc5ccc(F)cc5-c5ccccc5C5CC5)C4)C3)cc2[nH]1 (centres unmarked) [Example 49, 5-((7-(5-((2′-cyclopropyl-5-fluoro-[1,1′-biphenyl]-2-yl)oxy)pyrimidin-4-yl)-2,7-diazaspiro[4.4]nonan-2-yl)methyl)-1H-benzo[d]imidazol-2(3H)-one]		< 0.1	

Second part, the compound after the results:

EC50 ([1]; Homo sapiens, MV4-11, 72 h) [µM]	IC50 [2] [µM]	EC50 ([1]; 72 h) [µM]	SMILES
< 0.1	< 0.1		CCN(C(=O)OC)c1cc(F)ccc1Oc1cncnc1N1CCC2(CCN(Cc3ccc4[nH]c(=O)[nH]c4c3)C2)C1 (centres unmarked) [Example 91, methyl ethyl(5-fluoro-2-((4-(7-((2-oxo-2,3-dihydro-1H-benzo[d]imidazol-5-yl)methyl)-2,7-diazaspiro [4.4]nonan-2-yl)pyrimidin-5-yl)oxy)phenyl) carbamate]
		< 0.1	CC(O)c1ccccc1-c1cc(F)ccc1Oc1cncnc1N1CCC2(CCN(Cc3ccc4[nH]c(=O)[nH]c4c3)C2)C1 (single isomer, unassigned) [Example 60B, 5-((7-(5-((5-fluoro-2′-(1-hydroxyethyl)-[1,1′-biphenyl]-2-yl)oxy)pyrimidin-4-yl)-2,7-diazaspiro[4.4]nonan-2-yl)methyl)-1H-benzo[d]imidazol-2(3H)-one]
		< 0.1	CC(O)c1ccccc1-c1cc(F)ccc1Oc1cncnc1N1CCC2(CCN(Cc3ccc4[nH]c(=O)[nH]c4c3)C2)C1 (single isomer, unassigned) [Example 60D, 5-((7-(5-((5-fluoro-2′-(1-hydroxyethyl)-[1,1′-biphenyl]-2-yl)oxy)pyrimidin-4-yl)-2,7-diazaspiro[4.4]nonan-2-yl)methyl)-1H-benzo[d]imidazol-2(3H)-one]
		< 0.1	CC(O)c1ccccc1-c1cc(F)ccc1Oc1cncnc1N1CCC2(CCN(Cc3ccc4[nH]c(=O)[nH]c4c3)C2)C1 (single isomer, unassigned) [Example 60C, 5-((7-(5-((5-fluoro-2′-(1-hydroxyethyl)-[1,1′-biphenyl]-2-yl)oxy)pyrimidin-4-yl)-2,7-diazaspiro[4.4]nonan-2-yl)methyl)-1H-benzo[d]imidazol-2(3H)-one]
	0.1 to 1		CC(C)n1nccc1-c1cc(F)ccc1Oc1cncnc1N1CCC2(CCN(C(=O)C(N)C3CCCCC3)C2)C1 (single isomer, unassigned) [Example 206C, 2-amino-2-cyclohexyl-1-(7-(5-(4-fluoro-2-(1-isopropyl-1H-pyrazol-5-yl)phenoxy)pyrimidin-4-yl)-2,7-diazaspiro[4.4]nonan-2-yl)ethanone]
